Measurements: BigSolDB 2.1

O=C(O)c1cccc(O)c1
solubility (mole fraction)
Details | 278.15 K | 283.15 K | 288.15 K | 293.15 K | 298.15 K | 303.15 K | 308.15 K | 313.15 K | 318.15 K | 323.15 K
in acetone | 0.101 | 0.107 | 0.111 | 0.116 | 0.122 | 0.128 | 0.134 | 0.142 | 0.151 | 0.159
in acetonitrile | 0.00646 | 0.00759 | 0.0103 | 0.0116 | 0.0132 | 0.0155 | 0.017 | 0.0199 | 0.0228 | 0.0262
in ethanol | 0.0936 | 0.0968 | 0.101 | 0.106 | 0.112 | 0.116 | 0.121 | 0.127 | 0.134 | 0.147
in ethyl acetate | 0.0377 | 0.041 | 0.0441 | 0.0486 | 0.0534 | 0.0565 | 0.0607 | 0.0682 | 0.0742 | 0.0764
in ethylene glycol | 0.0804 | 0.0829 | 0.0847 | 0.0883 | 0.0959 | 0.102 | 0.109 | 0.116 | 0.124 | 0.136
in isopropanol | 0.0984 | 0.104 | 0.109 | 0.114 | 0.121 | 0.127 | 0.134 | 0.14 | 0.148 | 0.155
in isopropyl acetate | 0.0305 | 0.0337 | 0.0365 | 0.0383 | 0.043 | 0.0465 | 0.0507 | 0.0552 | 0.059 | 0.0618
in methanol | 0.0815 | 0.0856 | 0.0895 | 0.0943 | 0.0995 | 0.105 | 0.11 | 0.117 | 0.124 | 0.13
in methyl acetate | 0.0388 | 0.0435 | 0.048 | 0.0502 | 0.0549 | 0.0577 | 0.0631 | 0.0691 | 0.0764 | 0.0808
in n-butanol | 0.0772 | 0.0831 | 0.0857 | 0.0919 | 0.0957 | 0.102 | 0.109 | 0.115 | 0.12 | 0.125
in n-butyl acetate | 0.0361 | 0.0397 | 0.043 | 0.0459 | 0.0486 | 0.0526 | 0.0564 | 0.0611 | 0.0661 | 0.0693
in n-pentanol | 0.0774 | 0.0815 | 0.0852 | 0.0902 | 0.0951 | 0.101 | 0.106 | 0.113 | 0.118 | 0.125
in n-propanol | 0.0827 | 0.0878 | 0.0949 | 0.0975 | 0.101 | 0.108 | 0.114 | 0.121 | 0.128 | 0.133
in n-propyl acetate | 0.0379 | 0.0434 | 0.0449 | 0.047 | 0.0513 | 0.0569 | 0.061 | 0.0651 | 0.0711 | 0.0769
